In patent US8828997B2, “2,3-dihydro-1H-imidazo(1,2-a)pyrimidin-5-one derivatives, preparation thereof, and pharmaceutical use thereof” (Sanofi, priority 2009, dated 2014):

System: AKT protein phosphorylated on serine 473 (pAKT-S473) in PC3 human prostate carcinoma cells
Assay: pAKT expression in PC3 human prostate carcinoma cells measured by western blotting (test A)
Type: cell-based
Details: PC-3, 1 to 2 h incubation, absolute IC50
Method: The inhibitory activity of the molecules on AKT phosphorylation is measured either by western blotting using the technique described below, or by the MSD Multi-spot Biomarker detection technique from Meso Scale Discovery also described below.
Study of pAKT Expression in PC3 Human Prostate Carcinoma Cells Measured by Western Blotting (test A):
This test is based on measuring the expression of the AKT protein phosphorylated on serine 473. The phosphorylation of AKT (pAKT) is measured by western blotting in the PC3 human prostate carcinoma line (ATCC CRL-1435), using an antibody that specifically recognises pAKT-S473.
On day 1, the PC3 cells are seeded into 6-well plates (TPP, #92006) at the concentration of 0.8×10^6 cells/well in 1800 μl of DMEM medium (DMEM Gibco #11960-044) containing 10% of foetal calf serum (SVF Gibco, #10500-056) and 1% glutamine (L-Glu Gibco #25030-024), and incubated at 37° C., 5% CO2, overnight.
On day 2, the cells are incubated in the presence or absence of the test products for 1 to 2 hours at 37° C. in the presence of 5% CO2. The molecules, diluted in dimethyl sulphoxide (DMSO Sigma #D2650), are added from a 10-times concentrated stock solution, the final percentage of DMSO being 0.1%. The molecules are tested either at a single concentration of less than or equal to 10 μM, or at increasing concentrations in a range that can extend from less than 1 nM to 10 μM.
After this incubation, the cells are lysed for the preparation of the proteins. After the culture medium has been drawn off, the cells are rinsed with 1 ml of PBS (DPBS Gibco, #14190-094), recovered by scraping in 200 μl of complete HNTG buffer and transferred into a 96-well plate (Greiner #651201), and lysed for 1 h on ice. The HNTG buffer is composed of the following mixture: 50 mM hepes, 150 mM NaCl, 1% triton, 10% glycerol, with extemporaneous addition of one Mini Protease Inhibitor Cocktail tablet (Roche 1836153) and of one Phosphatase Inhibitor Cocktail tablet (Roche104906837001) per 10 ml of buffer.
The lysate is centrifuged for 10 min at 6000 rpm. 155 μl of supernatant are recovered. 150 μl are incubated for denaturation for 5 min at 95° C. in the presence of 4× NuPAGE LDS Sample Buffer diluted 4-fold (InVitrogen ref NP0007) and of 10× NuPAGE Sample Reducing Agent diluted 10-fold (InVitrogen ref NP0009). These samples are then frozen at −20° C. 5 μl are assayed by the microBCA technique according to the technical bulletin of the MicroBCA Protein Assay Kit (Pierce #23235).
For protein separation, 20 μg of proteins are loaded on to a NU-PAGE 4-12% Bis Tris Gel 12 well (InVitrogen ref NP0322BOX) and the migration is carried out for 1 h 30 in 20× NU-PAGE MOPS SDS Running Buffer diluted 20-fold (InVitrogen ref NP0001), at 150 volts.
The gel is then transferred on to an Invitrolon PVDF membrane (Invitrogen #LC2007) permeabilised before and after a few seconds in ethanol (Ethanol Fischer Scientific #E/0600DF/15).
The transfer is carried out in a Biorad tank at 30 volts overnight or at 60 volts for 3 hours, in the presence of 20× NUPAGE Transfer Buffer diluted 20-fold (InVitrogen ref NP0006).
The membrane is then saturated in saturating solution composed of TBS (10× Tris Buffered Saline, Sigma #T5912, diluted 10-fold), 0.1% Tween 20 (Sigma #P5927) and 3% BSA (Bovine Albumin Serum Fraction V, Sigma #A4503) for 6 h after overnight transfer or else for 1 h after transfer for a period of 3 h.
The primary antibodies are diluted to 1/1000 for the anti-phospho AKT-Ser473 antibody (1931-12, rabbit monoclonal, cat#4058 from Cell Signaling Technology Abcam), in saturating solution composed of PBS, 0.1% Tween 20 and 3% BSA, and then shaken overnight at 4° C.
Two rinses for 5 min in washing solution composed of TBS and 0.1% Tween 20 are carried out before hybridisation of the secondary antibodies. […]

COc1ccc(CCN2c3nc(N4CCOCC4)cc(=O)n3C[C@@]2(C)C(F)(F)F)cc1 [Example 1, (S)-1-[2-(4-Methoxyphenyl)ethyl]-2-methyl-7-morpholin-4-yl-2-trifluoromethyl-2,3-dihydro-1H-imidazo[1,2-a]pyrimidin-5-one]
IC50: 100 nM
